In ChEMBL document CHEMBL1201862, “PubChem BioAssay data set” (2004):
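A five-concentration, 48-hour dose response in 96-well plates underlies each endpoint, interpolated linearly between surrounding concentrations. GI50 marks 50% less growth.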 Activity calls are given as the source filed them. No stated cut-off is given here; in the data, active = GI50 up to about 1.1 µM and inactive = higher.

Tests used:
Assay in all cases: NCI anticancer screen, dose series, 48 h
ACHN = test system: ACHN
CAKI-1 = test system: CAKI-1
COLO 205 = test system: COLO 205
EKVX = test system: EKVX
HCT-15 = test system: HCT-15
HOP-92 = test system: HOP-92
K562 = test system: K562
MCF7 = test system: MCF7
NCI-H23 = test system: NCI-H23
NCI-H522 = test system: NCI-H522
OVCAR-4 = test system: OVCAR-4
RXF 393 = test system: RXF 393
SF-268 = test system: SF-268
SF-295 = test system: SF-295
SK-MEL-28 = test system: SK-MEL-28
SN12C = test system: SN12C
SR = test system: SR
UO-31 = test system: UO-31
LOX IMVI = test system: LOX IMVI
OVCAR-3 = test system: OVCAR-3

Compound | GI50 (ACHN) | GI50 (CAKI-1) | GI50 (COLO 205) | GI50 (EKVX) | GI50 (HCT-15) [µM] | GI50 (HOP-92) | GI50 (K562) | GI50 (MCF7) | GI50 (NCI-H23) | GI50 (NCI-H522) | GI50 (OVCAR-4) | GI50 (RXF 393) | GI50 (SF-268) | GI50 (SF-295) | GI50 (SK-MEL-28) | GI50 (SN12C) | GI50 (SR) | GI50 (UO-31) | GI50 (LOX IMVI) | GI50 (OVCAR-3)
C[C@]12C[C@@H](OC(=O)[C@]1(C)O)[C@@H]([C@]1(O)CC[C@H]3[C@@H]4C[C@H]5O[C@]56C[C@H]5O[C@H]5C(=O)[C@]6(C)[C@H]4CC[C@@]31C)C2 | > 50 µM (inactive) | > 50 µM (inactive) | > 50 µM (inactive) | > 50 µM (inactive) | > 50 | > 50 µM (inactive) | > 50 µM (inactive) | > 50 µM (inactive) | > 50 µM (inactive) | > 50 µM (inactive) | 27.5 µM (inactive) | > 50 µM (inactive) | > 50 µM (inactive) | > 50 µM (inactive) | > 50 µM (inactive) | > 50 µM (inactive) | 14.7 µM (inactive) | > 50 µM (inactive) | – | –
NCCCC[C@H](N)C(=O)Nc1ccc(-c2nc3ccccc3s2)cc1Cl | 13.4 µM (inactive) | 4.85 µM (inactive) | 4.91 µM (inactive) | 5.6 µM (inactive) | 5.68 | 18.8 µM (inactive) | 2.74 µM (inactive) | < 0.034 µM (active) | – | 4.84 µM (inactive) | – | 12.4 µM (inactive) | 8.34 µM (inactive) | 5 µM (inactive) | 7.89 µM (inactive) | 14.6 µM (inactive) | 2.36 µM (inactive) | 6.35 µM (inactive) | 1.36 µM (inactive) | 0.247 µM (active)
O=c1c2c(F)c(F)c(F)c(F)c2sc2nccn12 | 16.4 µM (inactive) | 19 µM (inactive) | 17.6 µM (inactive) | 24.7 µM (inactive) | 12.4 | 19.9 µM (inactive) | 6.55 µM (inactive) | 17.4 µM (inactive) | 15.5 µM (inactive) | 18.9 µM (inactive) | 19.5 µM (inactive) | 17.7 µM (inactive) | 18 µM (inactive) | 17.9 µM (inactive) | 23.4 µM (inactive) | 18.5 µM (inactive) | 3.27 µM (inactive) | – | 12.3 µM (inactive) | 14.4 µM (inactive)
Cn1c2c(c3ccccc31)CC(=O)N1CCCC(C1)CC21OCCO1 (centres undefined) | > 100 µM (inactive) | > 100 µM (inactive) | > 100 µM (inactive) | > 100 µM (inactive) | > 100 | > 100 µM (inactive) | > 100 µM (inactive) | > 100 µM (inactive) | > 100 µM (inactive) | – | > 100 µM (inactive) | 13.6 µM (inactive) | > 100 µM (inactive) | > 100 µM (inactive) | > 100 µM (inactive) | 38.2 µM (inactive) | > 100 µM (inactive) | > 100 µM (inactive) | > 100 µM (inactive) | > 100 µM (inactive)
COc1cc(/C=C2\N=C(c3ccccc3)N(c3ccc(S(=O)(=O)Nc4nccs4)cc3)C2=O)ccc1O | > 100 µM (inactive) | > 100 µM (inactive) | > 100 µM (inactive) | 63.8 µM (inactive) | 57.5 | 40.7 µM (inactive) | 55.8 µM (inactive) | 67.1 µM (inactive) | > 100 µM (inactive) | 50.4 µM (inactive) | > 100 µM (inactive) | 62.2 µM (inactive) | 51.9 µM (inactive) | > 100 µM (inactive) | – | > 100 µM (inactive) | 59.7 µM (inactive) | > 100 µM (inactive) | 40.3 µM (inactive) | > 100 µM (inactive)
CC1CN=C(Nc2ccc(F)c(Cl)c2)S1 (centres undefined) | > 100 µM (inactive) | 53.6 µM (inactive) | > 100 µM (inactive) | 43.2 µM (inactive) | 83.4 | 28.9 µM (inactive) | 62.1 µM (inactive) | > 100 µM (inactive) | 51.5 µM (inactive) | 58.2 µM (inactive) | – | 37.6 µM (inactive) | 92.3 µM (inactive) | > 100 µM (inactive) | > 100 µM (inactive) | – | 31.5 µM (inactive) | 29.8 µM (inactive) | 86.7 µM (inactive) | > 100 µM (inactive)
Clc1ccc(-c2nn3c(-c4ccncc4)nnc3s2)cc1 | 61 µM (inactive) | > 100 µM (inactive) | > 100 µM (inactive) | > 100 µM (inactive) | 16.4 | 41.6 µM (inactive) | > 100 µM (inactive) | > 100 µM (inactive) | > 100 µM (inactive) | > 100 µM (inactive) | > 100 µM (inactive) | 25.6 µM (inactive) | 37.4 µM (inactive) | 62.1 µM (inactive) | – | > 100 µM (inactive) | > 100 µM (inactive) | > 100 µM (inactive) | > 100 µM (inactive) | > 100 µM (inactive)
O=C(O)c1cc2cc(OCc3ccccc3)ccc2[nH]1 | > 100 µM (inactive) | > 100 µM (inactive) | > 100 µM (inactive) | > 100 µM (inactive) | > 100 | 23.6 µM (inactive) | > 100 µM (inactive) | 88.1 µM (inactive) | > 100 µM (inactive) | > 100 µM (inactive) | – | > 100 µM (inactive) | > 100 µM (inactive) | > 100 µM (inactive) | 4.01 µM (inactive) | > 100 µM (inactive) | > 100 µM (inactive) | > 100 µM (inactive) | > 100 µM (inactive) | > 100 µM (inactive)
OC1(c2ccc(Cl)cc2)c2c(ccc3c2OCO3)C2=NCCN21 (centres undefined) | 38 µM (inactive) | 46.9 µM (inactive) | 18.3 µM (inactive) | 75 µM (inactive) | 52.7 | 16.7 µM (inactive) | 26.2 µM (inactive) | 33.7 µM (inactive) | 63 µM (inactive) | – | 45.8 µM (inactive) | 26.7 µM (inactive) | 45 µM (inactive) | 36.6 µM (inactive) | 17.9 µM (inactive) | 53.7 µM (inactive) | 21.5 µM (inactive) | 38.5 µM (inactive) | 30.5 µM (inactive) | 54.6 µM (inactive)
NC1CNC(=O)c2c(Cl)sc(Cl)c21 (centres undefined) | > 100 µM (inactive) | > 100 µM (inactive) | > 100 µM (inactive) | > 100 µM (inactive) | > 100 | > 100 µM (inactive) | > 100 µM (inactive) | > 100 µM (inactive) | > 100 µM (inactive) | – | > 100 µM (inactive) | > 100 µM (inactive) | > 100 µM (inactive) | > 100 µM (inactive) | > 100 µM (inactive) | > 100 µM (inactive) | 41.4 µM (inactive) | > 100 µM (inactive) | > 100 µM (inactive) | > 100 µM (inactive)
COc1ccc(OC)c2sc(N3C(=O)/C(=C/c4cccc([N+](=O)[O-])c4)N=C3c3ccccc3)nc12 | 99.8 µM (inactive) | > 100 µM (inactive) | > 100 µM (inactive) | > 100 µM (inactive) | 61.5 | 94.2 µM (inactive) | 23.3 µM (inactive) | 21.2 µM (inactive) | 86.7 µM (inactive) | 42.6 µM (inactive) | – | 55.1 µM (inactive) | 57.5 µM (inactive) | 51.8 µM (inactive) | 76 µM (inactive) | > 100 µM (inactive) | 23.7 µM (inactive) | > 100 µM (inactive) | 23.1 µM (inactive) | 35.6 µM (inactive)
O=C1NC(=O)C(C(CC(=O)c2ccc(Cl)cc2)c2ccc(Cl)cc2)C(=O)N1 (centres undefined) | > 100 µM (inactive) | – | – | 17.1 µM (inactive) | > 100 | 40.4 µM (inactive) | > 100 µM (inactive) | 17.2 µM (inactive) | > 100 µM (inactive) | > 100 µM (inactive) | > 100 µM (inactive) | – | 36.2 µM (inactive) | > 100 µM (inactive) | > 100 µM (inactive) | > 100 µM (inactive) | 35.2 µM (inactive) | > 100 µM (inactive) | 54 µM (inactive) | 60.4 µM (inactive)
CCOC(=O)c1cc(C(=O)c2ccccc2)n2nc(-c3ccc(Cl)cc3)ccc12 | 15 µM (inactive) | 31.8 µM (inactive) | 50.7 µM (inactive) | 21.8 µM (inactive) | 33.9 | 24.8 µM (inactive) | > 100 µM (inactive) | 20.9 µM (inactive) | 27 µM (inactive) | 18.5 µM (inactive) | 16.6 µM (inactive) | 15.2 µM (inactive) | 13.5 µM (inactive) | 20.4 µM (inactive) | 28.4 µM (inactive) | 25.2 µM (inactive) | 72.6 µM (inactive) | 14.1 µM (inactive) | 56.4 µM (inactive) | –
O=C(c1ccco1)C1CC(c2ccc3ccccc3c2O)=NN1 (centres undefined) | > 100 µM (inactive) | > 100 µM (inactive) | 66.1 µM (inactive) | – | 50.6 | > 100 µM (inactive) | 38.6 µM (inactive) | 46.5 µM (inactive) | > 100 µM (inactive) | > 100 µM (inactive) | > 100 µM (inactive) | > 100 µM (inactive) | > 100 µM (inactive) | 55.8 µM (inactive) | > 100 µM (inactive) | > 100 µM (inactive) | 20.2 µM (inactive) | 89.7 µM (inactive) | – | 57.3 µM (inactive)
CC(C)C(=O)OCC1OC(n2c(Br)nc3c(=O)[nH]c(N)nc32)C(OC(=O)C(C)C)C1OC(=O)C(C)C (centres undefined) | > 100 µM (inactive) | – | 90.4 µM (inactive) | > 100 µM (inactive) | > 100 | > 100 µM (inactive) | – | 37.6 µM (inactive) | – | 35.2 µM (inactive) | – | – | 37.1 µM (inactive) | 21.2 µM (inactive) | – | 48 µM (inactive) | 38 µM (inactive) | > 100 µM (inactive) | 19.8 µM (inactive) | > 100 µM (inactive)
